Literature values in patent US20100144738A1, “INHIBITORS OF C-MET AND USES THEREOF” (priority 2006, published 2010).
Structures can show the parent of a compound that is named as a salt. Where two headings read alike, the source gives them in different places.

Key:
[1] = test system: c-Met mutations
[2] = target: c-Met (Homo sapiens, UniProt P08581); conditions: single dose
c-Met, sequence (P08581 25-1390): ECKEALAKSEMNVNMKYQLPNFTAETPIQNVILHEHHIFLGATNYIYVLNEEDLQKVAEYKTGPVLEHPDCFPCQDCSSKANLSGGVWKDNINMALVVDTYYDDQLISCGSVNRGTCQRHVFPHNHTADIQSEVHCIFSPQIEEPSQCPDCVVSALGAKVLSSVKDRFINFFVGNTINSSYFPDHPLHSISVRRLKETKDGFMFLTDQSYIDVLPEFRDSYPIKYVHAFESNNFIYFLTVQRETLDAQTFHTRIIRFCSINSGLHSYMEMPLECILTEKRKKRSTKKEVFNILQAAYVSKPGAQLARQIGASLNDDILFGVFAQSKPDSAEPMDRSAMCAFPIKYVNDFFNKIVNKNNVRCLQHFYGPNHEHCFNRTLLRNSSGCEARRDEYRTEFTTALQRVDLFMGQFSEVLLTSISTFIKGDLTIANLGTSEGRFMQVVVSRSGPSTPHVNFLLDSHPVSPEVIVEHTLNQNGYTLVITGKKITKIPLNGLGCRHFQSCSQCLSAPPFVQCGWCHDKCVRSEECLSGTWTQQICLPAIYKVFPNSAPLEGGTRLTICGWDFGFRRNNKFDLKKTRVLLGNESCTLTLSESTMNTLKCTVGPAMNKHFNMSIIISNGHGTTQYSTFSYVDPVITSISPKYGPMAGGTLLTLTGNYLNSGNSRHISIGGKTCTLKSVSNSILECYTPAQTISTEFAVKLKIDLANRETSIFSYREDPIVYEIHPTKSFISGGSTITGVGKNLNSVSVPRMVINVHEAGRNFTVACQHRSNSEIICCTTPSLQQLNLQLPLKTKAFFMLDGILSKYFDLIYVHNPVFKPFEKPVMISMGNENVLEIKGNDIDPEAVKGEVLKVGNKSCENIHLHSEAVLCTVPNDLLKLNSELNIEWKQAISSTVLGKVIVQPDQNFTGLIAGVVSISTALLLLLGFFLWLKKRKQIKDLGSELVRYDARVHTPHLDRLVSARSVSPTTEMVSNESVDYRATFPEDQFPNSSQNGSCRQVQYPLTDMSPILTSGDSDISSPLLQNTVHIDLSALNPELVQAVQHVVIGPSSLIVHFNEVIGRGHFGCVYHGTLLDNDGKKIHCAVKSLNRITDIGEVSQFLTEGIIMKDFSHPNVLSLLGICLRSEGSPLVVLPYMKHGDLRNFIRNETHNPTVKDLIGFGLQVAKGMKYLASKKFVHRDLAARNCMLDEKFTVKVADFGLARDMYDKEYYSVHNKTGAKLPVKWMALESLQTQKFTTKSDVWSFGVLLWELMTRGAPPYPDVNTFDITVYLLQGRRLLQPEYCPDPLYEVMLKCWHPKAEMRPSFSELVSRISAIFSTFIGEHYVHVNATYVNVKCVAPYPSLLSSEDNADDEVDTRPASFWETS

| duration of inhibition of c-Met phosphorylation in tumor xenografts [2] [h] | Compound | sensitivity of mutations to imatinib ([1]; mutations Asp816Val/Phe/Tyr) | sensitivity of mutations to imatinib ([1]; mutations Val560Gly, Glu839Lys, Asp820Gly) |
| --- | --- | --- | --- |
| – | Cc1ccc(NC(=O)c2ccc(CN3CCN(C)CC3)cc2)cc1Nc1nccc(-c2cccnc2)n1 [IMATINIB, imatinib mesylate] | resistant | sensitive |
| ≤ 12 | Cc1[nH]c(/C=C2\C(=O)Nc3ccc(S(=O)(=O)Cc4c(Cl)cccc4Cl)cc32)c(C)c1C(=O)N1CCC[C@@H]1CN1CCCC1 [PHA-665752] | – | – |
